Results on one molecule are retold here after US6440401B1, “2-phenyl-benzimidazolesulfonic acids as UV-B filters” (Merck Patent Gesellschaft Mit Beschraenkter Haftung, priority 2000, dated 2002).

The nature of the series: UV absorption maximum. Format: physicochemical. Here is the method: 108 parts of o-phenylenediamine are introduced into 500 parts of H2SO4 (>96%) and then 800 parts of oleum (65%) are added dropwise, the temperature being maintained at a maximum of 120° C. After 15 min, the mixture is cooled to 70° C. and 120 parts of benzoic acid are added. The mixture is heated for 2 h at 180° C. The mixture is slowly hydrolysed with 2 500 parts of water, the temperature being maintained below 10° C. The precipitate (crystals) is filtered off with suction, the crude product is suspended in 8 parts of water and dissolved with 32% sodium hydroxide solution at pH=7. The solution is stirred with activated carbon until colorless, and thereafter precipitation is induced using 96% H2SO4 by establishing a pH=1-2. 300 parts of 2-phenylbenzimidazole-4,6-disulfonic acid are obtained. The compound has an absorption maximum in the UV-B region at λmax=308 nm.

Turning to `O=S(=O)(O)c1cc(S(=O)(=O)O)c2[nH]c(-c3ccccc3)nc2c1` [2-phenylbenzimidazole-4,6-disulfonic acid], the “absorption maximum in the UV-B region, λmax” value is given as 308 nm.
